These results are taken from patent US6303578A, “Mu-opiate receptor peptides” (Administrators of the Tulane Educational Fund, priority 1999, dated 2001).

In experiment [1] the test system is guinea pig ileum. The class given is cell-based. The text has this:
[…]. […] […]

Experiment [2] concerns guinea pig ileum. Conditions: for overall agonist character: conclusion of Example 7.
In experiment [3] the target is κ receptors (Homo sapiens, UniProt P41145). Conditions: cited from earlier work; for Ki: values obtained from (7) or (20), read-out: Receptor Binding Ki κ.
Sequence of κ receptors (P41145 whole entry): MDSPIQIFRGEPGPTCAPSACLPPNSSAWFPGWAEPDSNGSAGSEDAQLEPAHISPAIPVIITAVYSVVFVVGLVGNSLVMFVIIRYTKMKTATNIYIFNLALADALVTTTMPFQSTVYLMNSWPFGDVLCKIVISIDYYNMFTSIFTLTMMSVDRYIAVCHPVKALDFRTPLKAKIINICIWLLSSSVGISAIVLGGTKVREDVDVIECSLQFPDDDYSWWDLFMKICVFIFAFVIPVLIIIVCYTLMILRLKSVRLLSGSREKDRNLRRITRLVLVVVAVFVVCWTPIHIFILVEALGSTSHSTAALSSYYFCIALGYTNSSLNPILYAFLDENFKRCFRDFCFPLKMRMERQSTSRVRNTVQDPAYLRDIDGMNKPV
The test system of experiment [4] is mice. To be noted: from reference (24); cited from earlier work.
The test system of experiment [5] is mice.
The subject of experiment [6] is mice. To be noted: it injection.
The target of experiment [7] is T1, μ receptors (Homo sapiens, UniProt P35372). Briefly: Binding to μ opiate receptors by inhibition of [3H]-DAMGO.
T1 sequence (P35372 whole entry): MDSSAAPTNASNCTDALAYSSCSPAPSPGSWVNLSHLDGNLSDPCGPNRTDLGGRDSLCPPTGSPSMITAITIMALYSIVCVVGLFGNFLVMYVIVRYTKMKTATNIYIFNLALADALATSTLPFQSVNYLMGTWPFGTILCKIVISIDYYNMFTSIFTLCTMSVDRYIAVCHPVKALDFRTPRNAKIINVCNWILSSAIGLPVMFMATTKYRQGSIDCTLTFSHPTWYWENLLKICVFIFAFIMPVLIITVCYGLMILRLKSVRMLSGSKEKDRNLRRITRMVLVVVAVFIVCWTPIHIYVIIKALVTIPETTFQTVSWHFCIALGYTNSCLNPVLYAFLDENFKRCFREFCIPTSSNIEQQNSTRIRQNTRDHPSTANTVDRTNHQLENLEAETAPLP
Description: (§1) The relative affinity and selectivity for the μ receptor over the δ and κ receptors of the synthesized peptides were tested and compared.
Experiment [8] deals with mice. Briefly: Analgesia in mice after IV injection. It counts as in vivo.
The target of experiment [9] is T2, δ receptors (Homo sapiens, UniProt P41143). Conditions: cited from earlier work.
T2 sequence (P41143 whole entry): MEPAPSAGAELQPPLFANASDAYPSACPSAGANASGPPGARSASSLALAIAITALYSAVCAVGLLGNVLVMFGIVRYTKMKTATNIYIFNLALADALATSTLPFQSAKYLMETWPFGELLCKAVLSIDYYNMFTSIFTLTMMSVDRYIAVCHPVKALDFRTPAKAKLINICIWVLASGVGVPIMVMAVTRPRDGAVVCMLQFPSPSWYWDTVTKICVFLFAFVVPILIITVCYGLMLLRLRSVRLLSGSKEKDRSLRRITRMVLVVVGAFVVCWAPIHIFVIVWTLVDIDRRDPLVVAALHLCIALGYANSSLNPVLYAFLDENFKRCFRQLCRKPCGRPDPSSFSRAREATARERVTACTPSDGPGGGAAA
Experiment [10] addresses T2, δ receptors. The experiment in a line: Binding to δ opiate receptors by inhibition of 3H-pCl-DPDPE. Conditions: FIG. 1 set of 20 pin-synthesized peptides.
Description: as §1
Experiment [11] deals with T1, μ receptors. To be noted: values obtained from (7) or (20); read-out: Receptor Binding Ki μ; cited from earlier work.
The mark [12] stands for this setting: mean±SEM, read-out: IC50 inhibiting electrically-induced contractions of the guinea pig ileum.
The mark [13] stands for this setting: untreated guinea pig ileum, read-out: agonist activity IC50 in the untreated ileum.
[14] abbreviates: methods of Example 3, route not given.

Several values for one entry are separate records, joined by “and”; a condition that tells them apart may be missing. Equal entries are not always repeated. Where two headings read alike, the source gives them in different places. Bridge positions count the residues as written; N and C are the ends. Square brackets hold non-standard residues; d marks the D form. Peptide text beside a SMILES is read from it. dOrn = NCCC[C@@H](N)C(=O)O

Regarding `C[C@@H](NC(=O)[C@@H](N)Cc1ccc(O)cc1)C(=O)NCC(=O)N(C)[C@@H](Cc1ccccc1)C(=O)NCCO` [DAMGO, reference compound], the IC50 in experiment [1] (setting [12]) was found to be 0.0068 ± 0.0008 µM. Moreover, in experiment [2] (0.3 μM DAMGO, ileum treated with 20 nM B-CNA), the “inhibition of electrically-induced contractions” value is on record as 40%.
Regarding `CSCC[C@H](NC(=O)[C@H](Cc1ccccc1)NC(=O)CNC(=O)CNC(=O)[C@@H](N)Cc1ccc(O)cc1)C(=O)O` [Met-Enkephalin], the Ki in experiment [3] is 4.44 µM. Besides, in experiment [4], the ED50 analgesia is 75 µg and the “duration of analgesic effects” value is reported as “less than 10 min”.
Turning to `NC(=O)[C@H](Cc1ccccc1)NC(=O)[C@H](Cc1c[nH]c2ccccc12)NC(=O)[C@@H]1CCCN1C(=O)[C@@H](N)Cc1ccc(O)cc1` [SEQ ID NO:1, H-Tyr-Pro-Trp-Phe-NH2], the IC50 in [1] (setting [12]) came to 0.0036 ± 0.0003 µM. In addition, the “effect of antagonists on the peptide's effect in guinea pig ileum” value in [1] (naloxone 0.5 μM and CTOP 0.5 μM, applied 1 min before or after, not by nor-binaltorphimine 20 nM) is “blocked and reversed”. In addition, the “animals still analgesic 1 hr after injection” value in experiment [5] (mice, 10-20 μg of the peptide, 1 hr) is given as “About half”. The “effect of antagonists on analgesia induced by 10 μg of the peptide” value in experiment [5] (naloxone 1 mg/kg sc, β-funaltrexamine 40 mg/kg 24 h pretreatment) was “reversed”. For the same molecule, the ED50 analgesia in experiment [6] is 0.8 µg.
Turning to `NC(=O)[C@H](Cc1ccccc1)NC(=O)[C@H](Cc1ccccc1)NC(=O)[C@@H]1CCCN1C(=O)[C@@H](N)Cc1ccc(O)cc1` [SEQ ID NO:2, H-Tyr-Pro-Phe-Phe-NH2], the IC50 in experiment [1] (setting [12]) is 0.004 ± 0.0004 µM. In addition, in [5] (mice, icv injection), the ED50 analgesia came out at 8.4 µg.
For the molecule `N[C@@H](Cc1ccc(O)cc1)C(=O)N1CCC[C@H]1C(=O)N[C@@H](Cc1c[nH]c2ccccc12)C(=O)N[C@@H](Cc1ccccc1)C(=O)O` [SEQ ID NO:3, H-Tyr-Pro-Trp-Phe-OH], the IC50 in experiment [1] (setting [13]) amounted to 5 µM. In [2] (B-CNA treated ileum), the “activity after treatment with 20 nM beta-chlornaltrexamine” value is reported as “antagonist activity”. In experiment [2], the overall agonist character result is “partial agonist activity”. Moreover, the “inhibition of contractions by DAMGO after pretreatment with the peptide” value in experiment [2] (peptide 20 μM 1 minute before 0.3 μM DAMGO, B-CNA treated ileum) worked out at 25%.
As for `N[C@@H](Cc1ccc(O)cc1)C(=O)N1CCC[C@H]1C(=O)N[C@@H](Cc1ccccc1)C(=O)N[C@@H](Cc1ccccc1)C(=O)O` [SEQ ID NO:4, H-Tyr-Pro-Phe-Phe-OH], the half-inhibitory concentration (IC50) in [1] (setting [13]) was determined as 20 µM. Also, the “activity after treatment with 20 nM beta-chlornaltrexamine” value in [2] (B-CNA treated ileum) is reported as “antagonist activity”. In experiment [2], the overall agonist character result was “partial agonist activity”.
For the molecule `N[C@@H](Cc1ccc(O)cc1)C(=O)N[C@@H]1CCCCNC(=O)[C@H](Cc2ccccc2)NC(=O)[C@H](Cc2c[nH]c3ccccc23)NC1=O` [SEQ ID NO:13, H-Tyr-c-[D-Lys-Trp-Phe]] (H-Y[dK]WF; lactam 2-C), in experiment [1], the “IC50 in the guinea pig ileum assay (in words)” value is recorded as “subnanomolar” and the “potency in the guinea pig ileum assay greater than SEQ ID NO:1” value was “about 4 fold”. Besides, in experiment [5] (setting [14]), the “analgesic potency IC50” value is 0.3 µg and the “analgesic potency greater than SEQ ID NO:1” value is listed as “about 10 fold”. For the same molecule, the “μ receptor affinity higher than the peptide of SEQ ID NO:1” value in experiment [7] was “about 15 fold”. For the same molecule, in experiment [8], the ED50 analgesia worked out at 0.16 µmol/kg.
Regarding `N[C@@H](Cc1ccc(O)cc1)C(=O)N[C@@H]1CCCNC(=O)[C@H](Cc2ccccc2)NC(=O)[C@H](Cc2c[nH]c3ccccc23)NC1=O` [SEQ ID NO:15, H-Tyr-c-[D-Orn-Trp-Phe]] (H-Y[dOrn]WF; lactam 2-C), the “μ receptor affinity higher than the peptide of SEQ ID NO:1” value in experiment [7] was “about 4 fold”.
On to `NC(=O)CNC(=O)[C@H](Cc1c[nH]c2ccccc12)NC(=O)[C@@H]1CCCN1C(=O)[C@@H](N)Cc1ccc(O)cc1` [Tyr-W-MIF-1, Tyr-Pro-Trp-Gly-NH2] (H-YPWG-NH2), for which, in experiment [9] (background, reference (7)), the “selectivity for μ over δ receptors” value is more than 200 fold. Moreover, the inhibition constant (Ki) in [9] (values obtained from (7) or (20), read-out: Receptor Binding Ki δ) was 15.5 µM; in experiment [7], 0.085 µM; in experiment [3], 22.3 µM; in experiment [11], 0.0709 µM and 0.07 µM. Also, in [9] (values obtained from (7)), the “Binding Selectivity δ/μ” value is given as 219. In addition, in experiment [10], the “selectivity for μ over δ receptors (δ Ki/μ Ki)” value worked out at 240 fold. In addition, in experiment [3] (background, reference (7)), the “selectivity for μ over κ receptors” value is more than 300 fold. The “Binding Selectivity κ/μ” value in experiment [3] (values obtained from (7)) is given as 314.
In experiment [8] (Mus musculus), `CN1CC[C@]23c4c5ccc(O)c4O[C@H]2[C@@H](O)C=C[C@H]3[C@H]1C5` [morphine, reference compound] showed an ED50 of 0.3 µmol/kg.

The term IC50 denotes the concentration needed to halve the response being measured. For orientation: Ki means a measure of affinity in units of concentration, obtained from inhibition or displacement. The term ED50 denotes the dose that gives a 50% effect, or the effect in half of the subjects.
